Laboratory results reported in US10309956B2, “Process for assessing risk of substance administration” (priority 2014, dated 2019).
In brackets after ≈: the same amount, converted by molar mass.

Key:
Assay type in all cases: cell-based, human
T cells = test: Intracellular TNF-α and IFN-γ positive T cells in TPP-treated PBMCs stimulated with poly I:C or LPS (flow cytometry)
Description: Dosing was based on an equi-nicotine exposure paradigm. Cells were washed after 3 h treatment and re-plated in a 48-well plate at 1 million cells/well/mL with and without the presence of 10 μg/mL polyinosinic:polycytidylic acid (poly I:C) or lipopolysaccharide (LPS). After a 67 h incubation, supernatants were taken for secreted cytokine analysis. Cells were plated onto a 96-well plate at 1×10^6/mL and further incubated for 4 h with 200 μL of media with Golgiplug (1 μg/mL) (BD Biosciences, San Jose, Calif.) to measure intracellular cytokines. Cells were then harvested, washed and surface stained for CD56-PE and CD2-FITC, CD69-APC monoclonal antibodies (mAB) for 30 min at 4° C. After washing, cells were fixed and permeabilized with BD Biosciences Cytofix/Cytoperm buffer for 20 min on ice in the dark. Cells were then stained with anti-IFN-γ-PE, anti-TNF-α-APC and anti-perforin-FITC mAB and incubated for an additional 30 min on ice. After washing the cells, they were re-suspended in a total volume of 200 μL of 2% paraformaldehyde for FACS analysis. Forward scatter, side scatter, fluorescence intensity and percent positivity were measured after acquiring 100,000 cells per sample by flow cytometry (BD Biosciences, San Jose, Calif.), and the data were analyzed using Cell Quest (BD Biosciences, San Jose, Calif.) and Flow Jo (Tree Star, Ashland, Oreg.) software.
It was sought to evaluate intracellular cytokine levels in T cells after treating with combustible and non-combustible TPPs. In a first set of experiments, measured was the induction of intracellular TNF-α and IFN-γ by flow cytometry after PBMCs were treated with TPPs and stimulated with either poly I:C or LPS.
It was assessed whether the pretreatment of PBMCs with TPPs compromised their ability to produce TNF-α^+ cells when stimulated with poly I:C and LPS.
Evaluated also were changes in the number of IFN-γ^+ T cells with TPP treatment followed by poly I:C and LPS stimulation.

NK cells [1] = test: CD69 expression in NK cells of TPP-treated PBMCs (flow cytometry); conditions: 1650 μg/mL
Description: Cells were washed after 3 h treatment and re-plated in a 48-well plate at 1 million cells/well/mL with and without the presence of 10 μg/mL polyinosinic:polycytidylic acid (poly I:C) or lipopolysaccharide (LPS). After a 67 h incubation, supernatants were taken for secreted cytokine analysis. Cells were plated onto a 96-well plate at 1×10^6/mL and further incubated for 4 h with 200 μL of media with Golgiplug (1 μg/mL) (BD Biosciences, San Jose, Calif.) to measure intracellular cytokines. Cells were then harvested, washed and surface stained for CD56-PE and CD2-FITC, CD69-APC monoclonal antibodies (mAB) for 30 min at 4° C. After washing, cells were fixed and permeabilized with BD Biosciences Cytofix/Cytoperm buffer for 20 min on ice in the dark. […] Forward scatter, side scatter, fluorescence intensity and percent positivity were measured after acquiring 100,000 cells per sample by flow cytometry (BD Biosciences, San Jose, Calif.), and the data were analyzed using Cell Quest (BD Biosciences, San Jose, Calif.) and Flow Jo (Tree Star, Ashland, Oreg.) software.
CD69 is an early inducible cell surface glycoprotein expressed during lymphoid activation and is involved in NK cell function. PBMCs were treated with TPPs, and CD69 expression on NK cell population was analyzed by flow cytometry after poly I:C and LPS stimulation.

PBMCs [2] = test: Cytolytic assay: killing of CFSE-labeled K562 target cells by TPP-treated PBMCs
Description: The K562 cell line was used as a target in a cytolytic assay. K562 cells were purchased from ATCC (Manassas Va., USA) and grown in RPMI complete media. One vial of cryopreserved PBMCs was thawed and washed, and a live cell count was taken. Different concentrations of TPPs were prepared in 100 μL media. 1.5×10^6 PBMCs in a 50 μL volume were added to each well and incubated for 1.5 h at 37° C. in 96-well round bottom plates. K562 target cells were labeled with carboxy fluorescein succinimidyl ester (CFSE) and added at a density of 100,000 cells/well (target:effector ratio is 1:15). Cell co-cultures were incubated at 37° C. for an additional 4 h. Immediately after the incubation period, cells were stained with 7AAD (which labels the dead cells) and the killing of CFSE-labeled K562 target cells was evaluated after 7AAD staining by flow cytometric analysis (BD Biosciences, San Jose, Calif.). Flow data were analyzed using Flow Jo software (Tree Star, Ashland, Oreg.).

NK cells [3] = test: TNF-α+ NK cells in poly I:C- and LPS-stimulated PBMCs treated with TPPs
Description: (§2) Cells were washed after 3 h treatment and re-plated in a 48-well plate at 1 million cells/well/mL with and without the presence of 10 μg/mL polyinosinic:polycytidylic acid (poly I:C) or lipopolysaccharide (LPS). After a 67 h incubation, supernatants were taken for secreted cytokine analysis. Cells were plated onto a 96-well plate at 1×10^6/mL and further incubated for 4 h with 200 μL of media with Golgiplug (1 μg/mL) (BD Biosciences, San Jose, Calif.) to measure intracellular cytokines. Cells were then harvested, washed and surface stained for CD56-PE and CD2-FITC, CD69-APC monoclonal antibodies (mAB) for 30 min at 4° C. After washing, cells were fixed and permeabilized with BD Biosciences Cytofix/Cytoperm buffer for 20 min on ice in the dark. Cells were then stained with anti-IFN-γ-PE, anti-TNF-α-APC and anti-perforin-FITC mAB and incubated for an additional 30 min on ice. After washing the cells, they were re-suspended in a total volume of 200 μL of 2% paraformaldehyde for FACS analysis. Forward scatter, side scatter, fluorescence intensity and percent positivity were measured after acquiring 100,000 cells per sample by flow cytometry (BD Biosciences, San Jose, Calif.), and the data were analyzed using Cell Quest (BD Biosciences, San Jose, Calif.) and Flow Jo (Tree Star, Ashland, Oreg.) software.

PBMCs [4] = test: Cell death / viability of PBMCs by 7AAD staining (flow cytometry)
PBMCs [5] = test: IL-8 secretion by ELISA after LPS stimulation; conditions: 2 mg/mL
Description: Suppression of cytokines was also evident with nicotine. […] Next were measured IL-8 levels in the same samples as above using an ELISA assay.

PBMCs and NK cells = test: Perforin levels in TPP-treated total PBMCs and NK cells; conditions: PBMC populations or NK cells
Description: as §2

PBMCs [6] = test: Intracellular cytokine-positive cells after 6 h LPS plus Golgiplug (modified protocol); conditions: total 6 h
Description: (§1) Previous methods utilized stimulation with TLR agonists (LPS is for […] and Poly I:C is for TLR3) for 67 h to measure intracellular cytokines and secreted cytokines.

PBMCs [7] = test: Secreted cytokines by CBA after 24 h LPS stimulation (modified protocol)
Description: as §1
To measure immunomodulatory effects, PBMCs were stimulated with LPS for different time periods and the secreted cytokines were measured by cytometric bead array (CBA) method. To establish LPS stimulation time, PBMCs were exposed to LPS stimulation for 4 h, 24 h, 48 h and 72 h and secreted cytokines were measured.

CN1CCCC1c1cccnc1 (centres unmarked) [nicotine]
basal levels of TNF-α+ T cells (T cells; 1650 μg/mL, basal (unstimulated)): higher basal levels | TNF-α+ T cell numbers (T cells; 10-1650 μg/mL, poly I:C and LPS stimulation): did not yield statistically significant differences | IFN-γ+ T cells (cytokine-positive cells) (T cells; only at the highest concentrations, changes not statistically significant): Measurable suppression | basal levels of the induction of CD69 relative to untreated cells (NK cells [1]): did not increase | target cell killing ability (PBMCs [2]; K562 targets, target:effector 1:15): did not reduce | cell killing (K562 targets) (PBMCs [2]; low and high doses): did not interfere | changes in TNF-α+ NK cells (NK cells [3]; higher dose (1650 μg/mL), after LPS stimulation): statistically significant reduction | changes in TNF-α+ NK cells (NK cells [3]; lower doses (10 and 500 μg/mL)): did not induce statistically significant changes | cell death (PBMCs [4]; 3 h, 2000 μg/mL): 8% | cell death (PBMCs [4]; 24 h, 3,000 μg/mL nicotine, comparable to near 80%): comparable degree of cell death | EC50 (PBMCs [4]; Homo sapiens, PBMC, 7AAD positive staining of PBMCs, 24 h assay, neat nicotine, read-out: EC50 (concentration at which 50% of the cells were no longer viable)): 1650 µg/mL (≈ 10.2 mM) | IL-8 secretion, suppressive effects (PBMCs [5]): significant | changes in perforin levels (PBMCs and NK cells): did not result in statistically significant changes | IFN-γ-positive cells, TNF-α-positive cells and MIP-1α-positive cells (PBMCs [6]): dose-dependent percent reduction | secreted cytokines (PBMCs [7]; LPS stimulation, 24 h): dose-dependent decrease | secreted IL-6 (PBMCs [7]; highest concentration (4 mg/mL) tested, LPS 24 h): suppressed | secreted IFN-γ (PBMCs [7]; range of concentrations up to 500 μg/mL of nicotine, LPS 24 h): significantly suppressed
